Laboratory results: US5439930A, “Biologically active n-acylprolydipeptides having antiamnestic, antihypoxic and anorexigenic effects” (Russian-American Institute for New Drug Development, priority 1992, dated 1995)
Where a SMILES comes first, the peptide text is derived from it. The star is where a group is joined. PhAc = O=C(Cc1ccccc1)*

Test system: outbred male mice
Assay: Gross behavior and acute toxicity
Format: in vivo
Protocol: Compound I was checked for gross behavior and acute toxicity in outbred male mice (18-22 g).
In the dose of 1000 mg/kg compound I caused excitement in 50% of animals. In the dose of 5000 mg/kg i.p. compound I caused death in 50% of animals.

CCOC(=O)CNC(=O)[C@@H]1CCCN1C(=O)Cc1ccccc1 [Compound I, N-phenacetyl-L-prolylglycine ethyl ester] (PhAc-Pro-Gly-OEt)
Stimulating effect of amphetamine (25 mg/kg): diminished the stimulating effect of amphetamine | Rectal temperature (1-10 mg/kg i.p.): did not change rectal temperature | Spontaneous motor activity (1-10 mg/kg i.p.): neither stimulated nor depressed the spontaneous motor activity | Stimulating effect of amphetamine on motor activity (1-10 mg/kg i.p.): did not enhance the stimulating effect of amphetamine | Excitement, % of animals (1000 mg/kg): 50% | Death, % of animals (5000 mg/kg i.p.): 50% | Lethality at 24 hours (500-3000 mg/kg i.p.): did not cause lethality | General condition (gross behavior) (up to the dose of 500 mg/kg): did not disturb the general condition | Motor coordination (rota rod test) (up to the dose of 500 mg/kg): did not change motor coordination
